Laboratory results: patent publication US7122555B2, “Pyrido [2,1-a] isoquinoline derivatives” (Hoffmann-la Roche Inc., priority 2003, dated 2006)

Target: human DPP-IV (Homo sapiens, UniProt P27487)
Experiment: DPP-IV activity assay (fluorogenic or colorimetric substrate), IC50 determination
Description: Activity of DPP-IV inhibitors are tested with natural human DPP-IV derived from a human plasma pool or with recombinat human DPP-IV. Human citrate plasma from different donors is pooled, filterted through a 0.2 micron membrane under sterile conditions and aliquots of 1 ml are shock frozen and stored at −120° C. until used. In the colorimetric DPP-IV assay 5 to 10 μl human plasma and in the fluorometric assay 1.0 μl of human plasma in a total assay volume of 100 μl is used as an enzyme source. […] In the calorimetric DPP-IV assay 20 ng rec.-h DPP-IV and in the fluorometric assay 2 ng rec-h DPP-IV in a total assay volume of 100 μl is used as an enzyme source.
Initial rate constants are calculated by best fit linear regression.
The absorption of pNA liberated from the colorimetric substrate is detected in a Packard SpectraCount at 405 nm continuosly every 2 minutes for 30 to 120 minutes. Initial rate constants are calculated by best fit linear regression.
DPP-IV activity assays are performed in 96 well plates at 37° C. in a total assay volume of 100 μl. The assay buffer consists of 50 mM Tris/HCl pH 7.8 containing 0.1 mg/ml BSA and 100 mM NaCl. Test compounds are solved in 100% DMSO, diluted to the desired concentration in 10% DMSO/H2O. The final DMSO concentration in the assay is 1% (v/v). At this concentration enzyme inactivation by DMSO is <5%. Compounds are with (10 minutes at 37° C.) and without preincubation with the enzyme. Enzyme reactions are started with substrate application followed by immediate mixing.
Kinetic parameters of the enzyme reaction are calculated at at least 5 different substrate concentrations and at least 5 different test compound concentrations.

human DPP-IV, sequence (P27487 31-766): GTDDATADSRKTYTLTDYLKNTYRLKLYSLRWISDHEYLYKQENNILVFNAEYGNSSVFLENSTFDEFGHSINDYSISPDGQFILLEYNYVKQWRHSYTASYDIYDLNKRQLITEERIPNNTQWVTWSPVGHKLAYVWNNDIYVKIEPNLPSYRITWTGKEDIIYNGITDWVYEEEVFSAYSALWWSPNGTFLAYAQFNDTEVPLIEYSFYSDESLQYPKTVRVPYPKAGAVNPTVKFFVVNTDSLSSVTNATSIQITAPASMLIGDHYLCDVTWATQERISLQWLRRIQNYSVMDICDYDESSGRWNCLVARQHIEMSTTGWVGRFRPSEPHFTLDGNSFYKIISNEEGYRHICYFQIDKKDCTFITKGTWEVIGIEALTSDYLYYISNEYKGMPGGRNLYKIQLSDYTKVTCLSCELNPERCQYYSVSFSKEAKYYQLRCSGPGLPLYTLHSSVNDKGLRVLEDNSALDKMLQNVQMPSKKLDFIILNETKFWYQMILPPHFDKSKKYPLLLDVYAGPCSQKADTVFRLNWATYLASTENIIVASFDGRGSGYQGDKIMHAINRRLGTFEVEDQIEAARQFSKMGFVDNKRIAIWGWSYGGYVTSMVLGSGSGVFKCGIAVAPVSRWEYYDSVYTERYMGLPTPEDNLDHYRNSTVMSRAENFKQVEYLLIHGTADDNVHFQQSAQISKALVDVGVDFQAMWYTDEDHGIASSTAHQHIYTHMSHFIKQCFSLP

| IC50 | SMILES |
| --- | --- |
| 0.131 µM | COc1cc2c(cc1OC)[C@@H]1C[C@H](N)[C@@H](N3CCCCS3(=O)=O)CN1CC2 [Example 16, (S,S,S)-3-(1,1-Dioxo-[1,2]thiazinan-2-yl)-9,10-dimethoxy-1,3,4,6,7,11b-hexahydro-2H-pyrido[2,1-a]isoquinolin-2-ylamine] |
| 0.041 µM | COc1cc2c(cc1OC)[C@@H]1C[C@H](N)[C@@H](C(=O)N3CCSC3)CN1CC2 (racemic) [Example 2, (RS,RS,RS)-(2-Amino-9,10-dimethoxy-1,3,4,6,7,11b-hexahydro-2H-pyrido[2,1-a]isoquinolin-3-yl)-thiazolidin-3-yl-methanone] |
| 0.033 µM | COc1cc2c(cc1OC)[C@@H]1C[C@H](N)[C@@H](N3CCC=CC3=O)CN1CC2 (racemic) [Example 12, (RS,RS,RS)-1-(2-Amino-9,10-dimethoxy-1,3,4,6,7,11b-hexahydro-2H-pyrido [2,1-a]isoquinolin-3-yl)-5,6-dihydro-1H-pyridin-2-one] |
